Data on ten molecules can be found in PubChem BioAssay (NCI).

What all share (assay): DTP human tumour cell line panel, 48 h
In assay [1] the test system is NCI-H23 lung.
In assay [2] the test system is A498 renal.
Assay [3] relates to SK-MEL-28 melanoma.
The test system of assay [4] is HCT-15 colon.
For assay [5], the system named is NCI-H460 lung.
The subject of assay [6] is A549 NSCLC.
Assay [7] has as its system BT-549 breast.
Assay [8] deals with CAKI-1 renal.
The subject of assay [9] is HS 578T breast.
For assay [10], the system named is UO-31 renal.

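Method: 48-hour compound exposure of cells in 96-well plates, five concentrations, linear interpolation of endpoints. GI50 marks 50% less growth. Definition used: TGI = concentration required for complete inhibition of growth.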

Regarding `O=C1NC(=NCCc2ccc(Cl)cc2)S/C1=C\c1ccc2ncccc2c1`, the GI50 is 23.3 µM in assay [1]; 13.8 µM in assay [2]; > 25 µM in assay [3]; 12.9 µM in [4]; 17.8 µM in assay [5]; 15 µM in assay [6]. Besides, the GI50 in [7] was 13.9 µM; in assay [8] it was > 19.5 µM; in assay [9] it was 9.77 µM; in assay [10], > 18.9 µM. Also, the TGI in assay [1], in [2], in assay [3], in assay [4], in assay [5] and in [6] was > 25 µM throughout. Moreover, the TGI in assay [7], in [8], in assay [9] and in assay [10] was > 25 µM throughout.

On to `COc1ccc(-n2c(=S)sc3c(Cl)nc(C)nc32)c(OC)c1`, for which the GI50 is 2.44 µM in assay [1]; 11.5 µM in [2]; 2.18 µM in [3]; 1.96 µM in [4]; 3.12 µM in [5]; 4.45 µM in assay [6]. Besides, the GI50 in assay [7] is 1.99 µM; in assay [8], 6.16 µM; in assay [9], 2.66 µM; in assay [10], 3.62 µM. Besides, the TGI in assay [1] was found to be 5.87 µM; in assay [2], 23.8 µM; in [3], 4.6 µM; in assay [4], 5.43 µM; in assay [5], 9.04 µM; in assay [6], 15.8 µM. Further, the concentration for total growth inhibition (TGI) in assay [7] was determined as 4.28 µM; in [8], 19.3 µM; in [9] it was 7.71 µM; in [10], 15.4 µM.

As to `C[C@@]1(F)[C@H](O)[C@@H](CO)O[C@H]1n1ccc(=O)[nH]c1=O`, the GI50 in assay [1], in assay [2], in assay [3], in assay [4], in assay [5] and in assay [6] was > 100 µM throughout. Moreover, the GI50 in assay [7], in [8], in [9] and in [10] was > 100 µM in each case. Moreover, the total growth inhibition concentration (TGI) in assay [1], in [2], in assay [3], in assay [4], in [5] and in assay [6] was > 100 µM in each case. In addition, the total growth inhibition concentration (TGI) in assay [7], in [8], in assay [9] and in [10] was > 100 µM throughout.

For the molecule `COc1cc2c(cc1C)NC(=O)/C2=C/c1ccnc2ccccc12`, the GI50 is 25.5 µM in assay [1]; 11.2 µM in assay [3]; 20.5 µM in assay [4]; 15.3 µM in assay [5]; 20.8 µM in assay [6]; 29.1 µM in assay [7]. Also, the figures for the GI50 in assay [8], in assay [9] and in [10] were 16.2 µM, 40.1 µM and 18.9 µM, respectively. Further, the total growth inhibition concentration (TGI) was > 50 µM in [1]; 46.8 µM in assay [3]; > 50 µM in [4]; > 50 µM in assay [5]; > 50 µM in assay [6]; > 50 µM in assay [7]. For the same molecule, the concentration for total growth inhibition (TGI) in assay [8], in assay [9] and in assay [10] was > 50 µM in each case.

As to `NCCO/C=C/C(N)C(=O)O` (configuration not stated), the TGI in assay [1], in [3], in assay [4], in assay [5], in assay [6] and in assay [7] was > 100 µM throughout. Moreover, the TGI in assay [8], in assay [9] and in assay [10] was > 100 µM in each case.

As for `O=C(Nc1sc2c(c1C(=O)O)CCCC2)c1ccco1`, the GI50 was > 50 µM in assay [2]; > 50 µM in assay [3]; 30.6 µM in assay [4]; 23.5 µM in assay [5]; 19.1 µM in assay [6]; > 50 µM in assay [7]. The GI50 in assay [8] was 44.1 µM; in assay [9], > 50 µM; in [10], > 50 µM. The TGI in [2], in [3], in [4], in assay [5], in [6] and in assay [7] was > 50 µM in each case. In addition, the TGI in [8], in assay [9] and in assay [10] was > 50 µM throughout.

For `COc1cc(O)ccc1C(=S)SC`, the TGI in assay [1], in assay [3], in [4], in assay [5], in assay [6] and in assay [7] was > 100 µM in each case. Besides, the concentration for total growth inhibition (TGI) in assay [8] is > 100 µM; in assay [9], 98.5 µM; in assay [10], > 100 µM.

`O=C1c2cccc3cccc(c23)C(=O)N1CCCCCN1CCN(CCN=c2cc3n(-c4ccc(Cl)cc4)c4ccccc4nc-3cc2Nc2ccc(Cl)cc2)CC1`: the GI50 was 8.52 µM in [1]; > 50 µM in assay [2]; 18.9 µM in [3]; 9.28 µM in assay [4]; 13.2 µM in assay [5]; 25.9 µM in [6]. Also, the GI50 in assay [7] is 22.2 µM; in assay [8] it was 6.33 µM; in assay [9] it was 36.8 µM. Also, the TGI in [1] was 22.3 µM; in assay [2] it was > 50 µM; in assay [3], > 50 µM; in assay [4] it was 37.5 µM; in [5] it was > 50 µM; in assay [6], > 50 µM. In addition, the values for the concentration for total growth inhibition (TGI) in assay [7], in assay [8] and in [9] were > 50 µM, 20.5 µM and > 50 µM, respectively.

`C=C1C(=O)O[C@@H]2/C=C(/C)[C@@H](OC(C)=O)C/C=C(\C)C(O)[C@@H](OC(=O)/C(C)=C\C)C12` (some centres not stated): the TGI in [1] was > 100 µM; in assay [2], > 100 µM; in [3] it was 32.1 µM; in [4] it was 30.3 µM; in assay [5], > 100 µM; in [6], > 100 µM. Moreover, the results for the total growth inhibition concentration (TGI) in [7], in [8] and in assay [9] were 44.3 µM, 54.4 µM and > 100 µM, respectively.

With `CCCCCCCC/C=C/CCCCCCCC1=NC(C)(C)CN1C(C)(C)CO`, the GI50 is 1.77 µM in assay [1]; 11.5 µM in assay [2]; 1.79 µM in [3]; 1.81 µM in assay [5]; 1.87 µM in [6]; 11.3 µM in [7]. For the same molecule, the values for the GI50 in assay [8] and in assay [9] were 1.39 µM and 1.84 µM, respectively. For the same molecule, the concentration for total growth inhibition (TGI) in assay [1] worked out at 3.46 µM; in assay [2], 25.7 µM; in [3], 3.18 µM; in assay [5] it was 3.31 µM; in [6], 3.82 µM; in assay [7], 24.1 µM. The TGI in assay [8] was determined as 2.88 µM; in assay [9], 3.9 µM.

By GI50 is commonly meant the concentration giving 50% growth inhibition. In general, TGI refers to the concentration at which net growth stops. The low end stands for more potent growth arrest, the high end for less potent growth arrest.
